Results on 36 compounds are retold here after PubChem BioAssay (NCI).

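Tested at 5 concentrations; 48 h exposure; 96-well plates; endpoints linearly interpolated, else capped at highest concentration. TGI: concentration producing complete growth inhibition.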 Some results are limits rather than exact numbers.

The subject of one experiment is BT-549 breast. Nature of the experiment: inhibition of tumour cell growth, NCI panel, 48 h.
`N#CC12C(=O)N=C(N)C1(C#N)C(c1ccco1)NC1=C2CCCC1` (configuration not stated) returned a TGI greater than 100 µM.
As to `CC1=NN(c2cccc(Cl)c2)C2(C1=C/C=C/c1ccccc1)C(Cl)C(=O)N2c1nc2ccccc2s1` (configuration not stated), the TGI was greater than 100 µM.

The subject of the next experiment is SNB-75 CNS. Nature of the experiment: inhibition of tumour cell growth, NCI panel, 48 h.
For the compound `CC1(C)CCCC2OC2CCC(C)(C)C1=O` (configuration not stated), the TGI was greater than 100 µM.
Take `O=C1NCC2(CCN(CCCC3(c4ccc(F)cc4)OCCO3)CC2)N1c1ccccc1`: the TGI was greater than 100 µM.
On the same count and under the same terms, for `COc1ccc2c(c1)/C(=C\c1c(Cl)nc3sc(C)cn13)C(=O)N2` the value was 17.1 µM; for `O=C1c2ccccc2-c2c1c(-c1ccc(F)cc1)nc1ccc3ccccc3c21`, greater than 100 µM; for `O=C(/C=C/c1ccc2c(c1)OCO2)CC(=O)C(=O)c1c[nH]c2ccccc12`, 96.6 µM.
For the compound `O=C(Nc1nccs1)c1c(O)nc2sccn2c1=O`, the TGI was greater than 10 µM.
Still for that read-out and setting: next, `O=c1[nH]c(=O)n(C2OC(CO)C(O)C2O)c2nc(-c3ccc(-c4ccccc4)cc3)cnc12` (configuration not stated): greater than 100 µM.
Still for that read-out and setting: for `O=C1NCCN1/N=C/c1c(Cl)n(-c2ccccc2)c2ccccc12` the value was 55 µM; for `CCCCCCOc1ccc(C(=O)NOC)cc1`, greater than 100 µM; for `Cc1c(S(=O)(=O)c2ccccc2)c(N)n(CCN(C)C)c1C`, greater than 100 µM.
Still for that read-out and setting: next, `N=C(N)SCc1ccc2c(c1)Sc1ccccc1O2`: 18.2 µM; `CC1CCC(C(=O)O)(C(Br)C(=O)O)CC1` (configuration not stated): greater than 100 µM.
Compound `CCCC(=O)OC1CC(n2cc(F)c(=O)[nH]c2=O)OC1COP(=O)(OCC(Cl)(Cl)Cl)OCC(Cl)(Cl)Cl` (configuration not stated) displayed a TGI of 76.6 µM.
The compound `CCOC(=O)Cn1c(=O)c2nc(SC)sc2n(-c2ccccc2)c1=O` had a TGI greater than 100 µM.
On the same count and under the same terms, next, `CS(=O)(=O)OCC(CCl)(CCl)CCl`: greater than 100 µM.
On the same count and under the same terms, for `CSC(=S)N(C)C` the value was greater than 100 µM.
In the case of `COc1ccc2c(C)cc(=O)oc2c1OC`, the TGI is greater than 100 µM.
In the case of `O=c1[nH]c(Nc2nc3ccccc3[nH]2)nc(O)c1-c1ccccc1`, the TGI is greater than 100 µM.
Still for that read-out and setting: next, `O=C(CC(C(=O)c1ccsc1)c1ccc2c(c1)OCO2)c1ccccc1` (configuration not stated): greater than 100 µM.
For `CCN(CCCN(CC)C(=O)Nc1c(C)cccc1C)C(=O)Nc1c(C)cccc1C`, the TGI is greater than 100 µM.
On the same count and under the same terms, for `CSC(=S)N/N=C(\C)c1ccc(S(=O)(=O)N(C)c2ccccc2)cc1` the value was greater than 100 µM; for `COc1ccc(C2=N/C(=C\c3ccccc3)C(=O)O2)cc1`, greater than 100 µM.
With `CC1(C)C2CCC1(C)[C@H](n1c(=O)n([C@@H]3CC4CCC3(C)C4(C)C)c(=O)n([C@@H]3CC4CCC3(C)C4(C)C)c1=O)C2`, the TGI is 46.5 µM.
Same read-out and setting: next, `Cc1nc(N)c(N2CCN([N+](=O)[O-])CC2)c(=O)[nH]1`: greater than 100 µM; `Oc1ccc([I+]c2ccccc2)cc1O`: greater than 100 µM.

The subject of another experiment is KM12 colon. Nature of the experiment: inhibition of tumour cell growth, NCI panel, 48 h.
Consider `CC1(C)CCCC2OC2CCC(C)(C)C1=O` (configuration not stated), for which the TGI is greater than 100 µM.
Still for that read-out and setting: for `O=C1NCC2(CCN(CCCC3(c4ccc(F)cc4)OCCO3)CC2)N1c1ccccc1` the value was greater than 100 µM; for `COc1ccc2c(c1)/C(=C\c1c(Cl)nc3sc(C)cn13)C(=O)N2`, 15.2 µM; for `O=C1c2ccccc2-c2c1c(-c1ccc(F)cc1)nc1ccc3ccccc3c21`, greater than 100 µM.
With `O=C(/C=C/c1ccc2c(c1)OCO2)CC(=O)C(=O)c1c[nH]c2ccccc12`, the TGI is greater than 100 µM.
Still for that read-out and setting: for `O=C(Nc1nccs1)c1c(O)nc2sccn2c1=O` the value was greater than 10 µM; for `O=c1[nH]c(=O)n(C2OC(CO)C(O)C2O)c2nc(-c3ccc(-c4ccccc4)cc3)cnc12` (configuration not stated), greater than 100 µM; for `CC1=NN(c2cccc(Cl)c2)C2(SCC(=O)N2c2nc3ccccc3s2)/C1=C\c1ccccc1O` (configuration not stated), 45.1 µM.
The same measure, in the same setting: next, `O=C1NCCN1/N=C/c1c(Cl)n(-c2ccccc2)c2ccccc12`: 34.2 µM; `CCCCCCOc1ccc(C(=O)NOC)cc1`: greater than 100 µM.
Same read-out and setting: next, `Cc1c(S(=O)(=O)c2ccccc2)c(N)n(CCN(C)C)c1C`: greater than 100 µM; `N=C(N)SCc1ccc2c(c1)Sc1ccccc1O2`: 16.4 µM.
The compound `CC1CCC(C(=O)O)(C(Br)C(=O)O)CC1` (configuration not stated) displayed a TGI greater than 100 µM.
The compound `COc1cc(NS(C)(=O)=O)ccc1Nc1cc(C)[nH]c2ccc3nccc3c12` showed a TGI greater than 100 µM.
`CCCC(=O)OC1CC(n2cc(F)c(=O)[nH]c2=O)OC1COP(=O)(OCC(Cl)(Cl)Cl)OCC(Cl)(Cl)Cl` (configuration not stated) yielded a TGI greater than 100 µM.
Compound `CCOC(=O)Cn1c(=O)c2nc(SC)sc2n(-c2ccccc2)c1=O` had a TGI greater than 100 µM.
With `O=[N+]([O-])C(/C=C(\Cl)n1nnc2ccccc21)=C(/Cl)n1nnc2ccccc21`, the TGI is greater than 100 µM.
With `CS(=O)(=O)OCC(CCl)(CCl)CCl`, the TGI was greater than 100 µM.
`CSC(=S)N(C)C`: the TGI is greater than 100 µM.
On the same count and under the same terms, next, `COc1ccc2c(C)cc(=O)oc2c1OC`: greater than 100 µM; `CN(C)c1ccc(S(=O)Nc2ccccc2)cc1` (configuration not stated): 57.1 µM; `OCCc1ccsc1-c1sc(-c2cc(CCO)c(-c3sccc3CCO)s2)cc1CCO`: 11.5 µM.
Same read-out and setting: next, `O=[N+]([O-])c1ccc(Oc2c(Cl)cc(S(=O)(=O)/N=C(\NO)Nc3ccc(Cl)cc3)cc2Cl)cc1`: 29 µM.
Still for that read-out and setting: for `O=C(CC(C(=O)c1ccsc1)c1ccc2c(c1)OCO2)c1ccccc1` (configuration not stated) the value was greater than 100 µM; for `CCOC(=O)c1ccc(NCC#CCN2CCOCC2)cc1`, greater than 100 µM.
`CCN(CCCN(CC)C(=O)Nc1c(C)cccc1C)C(=O)Nc1c(C)cccc1C` displayed a TGI greater than 100 µM.
In the case of `CSC(=S)N/N=C(\C)c1ccc(S(=O)(=O)N(C)c2ccccc2)cc1`, the TGI was greater than 100 µM.
`CCNC(=O)Cc1nc2c(N)ncnc2n1C1OC(CO)C(O)C1O` (configuration not stated) registered a TGI greater than 100 µM.
Still for that read-out and setting: for `COc1ccc(C2=N/C(=C\c3ccccc3)C(=O)O2)cc1` the value was greater than 100 µM; for `CC1(C)C2CCC1(C)[C@H](n1c(=O)n([C@@H]3CC4CCC3(C)C4(C)C)c(=O)n([C@@H]3CC4CCC3(C)C4(C)C)c1=O)C2`, greater than 100 µM; for `Cc1nc(N)c(N2CCN([N+](=O)[O-])CC2)c(=O)[nH]1`, greater than 100 µM.
Still for that read-out and setting: for `Cc1ccc(S(=O)(=O)N/N=C/C2(c3ccccc3)c3ccccc3-c3ccccc32)cc1` the value was 20.2 µM; for `Oc1ccc([I+]c2ccccc2)cc1O`, 70.7 µM; for `N#CC12C(=O)N=C(N)C1(C#N)C(c1ccco1)NC1=C2CCCC1` (configuration not stated), greater than 100 µM.
Same read-out and setting: next, `CC1=NN(c2cccc(Cl)c2)C2(C1=C/C=C/c1ccccc1)C(Cl)C(=O)N2c1nc2ccccc2s1` (configuration not stated): greater than 67.5 µM.
